This is an account of results in US6734182B2, “Aryl sulfonamides and sulfamide derivatives and uses thereof” (Synaptic Pharmaceutical Corporation, priority 1995, dated 2004).

One experiment has as its target T1, human Y4 receptor (Homo sapiens, UniProt P50391).
T1 construct: expressed in transfected cells
The experiment in a line: Radioligand binding to cloned human Y4 receptor (125I-PYY). The following applies: cloned human Y4, stably transfected cells, read-out: Binding Affinity (K1 (nM) vs. 125I-PYY) Human Receptor Y4. How it is done:
(§1) Human Y1, human Y2, and rat Y5 receptors were co-transfected with a G-418 resistant gene into the human embryonic kidney 293 cell line by a calcium phosphate transfection method (Cullen, 1987). Stably transfected cells were selected with G-418. Human Y4 and human Y5 receptors were similarly transfected into mouse fibroblast LM(tk−) cells and NIH-3T3 cells.
(§2) Binding of the compounds of the present invention to the human Y1, Y2, Y4 and Y5 receptors was evaluated using stably transfected 293 or LM(tk−) cells as described above. Stably transfected cell lines which may be used for binding assays include, for example, for the human Y1 receptor, 293-hY1-5 (deposited Jun. 4, 1996, under ATCC Accession No. CRL-12121), for the human Y2 receptor, 293-hY2-10 (deposited Jan. 27, 1994, under ATCC Accession No. CRL-11537), for the human Y4 receptor, L-hY4-3 (deposited Jan. 11, 1995, under ATCC Accession No. CRL-11779), and for the human Y5 receptor, L-hY5-7 (deposited Nov. 15, 1995, under ATCC Accession No. CRL-11995).
(§3) Membranes were harvested from COS-7 cells 48 hours after transient transfection. Adherent cells were washed twice in ice-cold phosphate buffered saline (138 mM NaCl, 8.1 mM Na2HPO4, 2.5 mM KCl, […], 0.9 mM CaCl2, 0.5 mM MgCl2, pH 7.4) and lysed by sonication in ice-cold sonication buffer (20 mM Tris-HCl, 5 mM EDTA, pH 7.7). Large particles and debris were cleared by low speed centrifugation (200 x g, 5 min, 4° C.). Membranes were collected from the supernatant fraction by centrifugation (32,000 x g, 18 min, […] ), washed with ice-cold hypotonic buffer, and collected again by centrifugation (32,000 x g, 18 min, 4° C.). […] Protein concentration was measured by the Bradford method (Bradford, 1976) using Bio-Rad Reagent, with bovine serum albumin as a standard. Membranes were held on ice for up to one hour and used fresh, or flash-frozen and stored in liquid nitrogen.
(§4) Membranes were prepared similarly from 293, LM(tk−), and NIH-3T3 cells. To prepare membranes from baculovirus infected cells, 2×10^7 Sf21 cells were grown in 150 mm tissue culture dishes and infected with a high-titer stock of hY5BB3. Cells were incubated for 2-4 days at 27° C., no CO2 be fore harvesting and membrane preparation as described above.

For experiment [1], the system named is food intake in food-deprived rats. The experiment in a line: Food intake in food-deprived rats (24 h food deprivation). Type of experiment: in vivo, rat. More on the design: concentration or dose not given beside the values. The following applies: rats after 24 h food deprivation; two hours after administration of test compound.
A further experiment concerns the target T2, human Y2 receptor (Homo sapiens, UniProt P49146).
T2 construct: expressed in transfected cells
T2 sequence (P49146 1-381): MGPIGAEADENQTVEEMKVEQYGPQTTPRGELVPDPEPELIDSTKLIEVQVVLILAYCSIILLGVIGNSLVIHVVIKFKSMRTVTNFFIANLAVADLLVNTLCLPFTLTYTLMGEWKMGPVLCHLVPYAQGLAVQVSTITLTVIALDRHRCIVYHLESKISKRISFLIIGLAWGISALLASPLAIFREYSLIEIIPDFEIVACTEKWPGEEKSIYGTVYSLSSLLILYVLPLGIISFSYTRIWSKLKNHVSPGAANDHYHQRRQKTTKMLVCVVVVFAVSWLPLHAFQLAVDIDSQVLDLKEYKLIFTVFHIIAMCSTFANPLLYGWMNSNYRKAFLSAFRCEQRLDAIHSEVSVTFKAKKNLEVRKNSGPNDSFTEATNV
The experiment in a line: Radioligand binding to cloned human Y2 receptor (125I-PYY). Conditions: cloned human Y2, stably transfected cells, read-out: Binding Affinity (K1 (nM) vs. 125I-PYY) Human Receptor Y2. The procedure:
as §1, §2, §3, §4

The next experiment deals with T3, human 5HT1F receptor (Homo sapiens, UniProt P30939).
T3 construct: expressed in transfected cells
T3 sequence (P30939 1-366): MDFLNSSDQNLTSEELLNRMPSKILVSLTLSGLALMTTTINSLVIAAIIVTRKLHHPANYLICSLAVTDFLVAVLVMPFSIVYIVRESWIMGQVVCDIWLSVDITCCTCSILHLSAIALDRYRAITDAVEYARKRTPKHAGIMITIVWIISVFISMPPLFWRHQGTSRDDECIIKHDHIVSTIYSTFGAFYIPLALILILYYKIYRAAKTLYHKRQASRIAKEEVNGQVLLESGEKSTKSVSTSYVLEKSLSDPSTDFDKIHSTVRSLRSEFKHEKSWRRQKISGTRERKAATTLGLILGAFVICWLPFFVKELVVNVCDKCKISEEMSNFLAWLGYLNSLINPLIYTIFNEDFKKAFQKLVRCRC
The experiment in a line: Binding to human 5HT1F receptor ([3H]serotonin). Conditions: cloned human receptor; read-out: Receptor (pKi) 5HT1F (converted). How it is done:
(§5) 5HT1Dα, 5HT1Dβ, 5HT1E, 5HT1F Receptors: LM(tk−) clonal cell lines stably transfected with the genes encoding each of these 5HT receptor subtypes were prepared as described above. The cell line for the 5HT1Dα, receptor, designated as Ltk−8-30-84, was deposited on Apr. 17, 1990, and accorded ATCC Accession No. CRL 10421. The cell for the 5HT1Dβ receptor, designated as Ltk−11, was deposited on Apr. 17, 1990, and accorded ATCC Accession No. CRL 10422. The cell line for the 5HT1E receptor, designated 5 HT1E-7, was deposited on Nov. 6, 1991, and accorded ATCC Accession No. CRL 10913. The cell line for the 5HT1F receptor, designated L-5-HT1F, was deposited on Dec. 27, 1991, and accorded ATCC Accession No. ATCC 10957. Membrane preparations comprising these receptors were prepared as described below, and suspended in 50 mM Tris-HCl buffer (pH 7.4 at 37° C.) containing 10 mM MgCl2, 0.2 mM EDTA, 10 μM pargyline, and 0.1% ascorbate. The binding of compounds was determined in competition binding assays by incubation for 30 minutes at 37° C. in the presence of 5 nM [^3H) serotonin. Nonspecific binding was determined in the presence of 10 μM serotonin. The bound radioligand was separated by filtration through GF/B filters using a cell harvester.

For the next experiment, the target named is T4, human 5HT1E receptor (Homo sapiens, UniProt P28566).
T4 construct: expressed in transfected cells
T4 sequence (P28566 whole entry): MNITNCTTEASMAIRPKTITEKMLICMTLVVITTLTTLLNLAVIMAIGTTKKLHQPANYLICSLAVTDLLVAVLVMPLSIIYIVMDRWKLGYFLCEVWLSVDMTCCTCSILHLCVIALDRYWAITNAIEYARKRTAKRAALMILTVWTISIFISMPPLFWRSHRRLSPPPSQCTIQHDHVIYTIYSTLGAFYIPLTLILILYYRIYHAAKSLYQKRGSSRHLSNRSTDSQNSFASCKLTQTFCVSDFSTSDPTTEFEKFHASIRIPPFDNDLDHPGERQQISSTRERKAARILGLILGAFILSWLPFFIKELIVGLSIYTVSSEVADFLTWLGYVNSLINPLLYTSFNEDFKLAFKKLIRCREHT
The experiment in a line: Binding to human 5HT1E receptor ([3H]serotonin). Conditions: cloned human receptor; read-out: Receptor (pKi) 5HT1E (converted). How it is done: as §5

In experiment [2] the test system is NPY-induced feeding behavior in satiated rats. The experiment in a line: NPY-induced food intake in satiated rats. Type of experiment: in vivo, rat. Conditions: compound 10 mg/kg i.p., then 300 pmole NPY i.c.v., 4 hours after NPY, in g (unit assumed). The procedure:
For these determinations food intake maybe measured in normal satiated rats after intracerebroventricular application (i.c.v.) of NPY in the presence or absence of the test compound. Male Sprague Dawley rats ciba-Geigy AG, Sisseln, Switzerland weighing between 180 g and 220 g are used for all experiments. The rats are individually housed in stainless steel cages and maintained on an 11:13 h light-dark cycle (lights off at 18:00 h) at a controlled temperature of 21-23° C. at all times. Water and food (NAFAG lab chow pellets, NAFAG, Gossau, Switzerland) are available ad libidum.
Rats under pentobarbital anesthesia are stereotaxically implanted with a stainless steel guide cannula targeted at the right lateral ventricle. Stereotaxic coordinates, with the incisor bar set −2.0 mm below interaural line, are: −0.8 mm anterior and +1.3 mm lateral to bregma. The guide cannula is placed on the dura. […]
Food intake may be measured by placing preweighed pellets into the cages at the time of NPY injection. […] The food intake of animals treated with test compound may be calculated as a percentage of the food intake of control animals, i.e., animals treated with vehicle. Alternatively, food intake for a group of animals subjected to the same experimental condition may be expressed as the mean ±S.E.M. Statistical analysis is performed by analysis of variance using the Student-Newman-Keuls test. […]

In the next experiment the target is T5, cloned human Y5 receptor (Homo sapiens, UniProt Q15761).
T5 construct: expressed in transfected cells
T5 sequence (Q15761 1-445): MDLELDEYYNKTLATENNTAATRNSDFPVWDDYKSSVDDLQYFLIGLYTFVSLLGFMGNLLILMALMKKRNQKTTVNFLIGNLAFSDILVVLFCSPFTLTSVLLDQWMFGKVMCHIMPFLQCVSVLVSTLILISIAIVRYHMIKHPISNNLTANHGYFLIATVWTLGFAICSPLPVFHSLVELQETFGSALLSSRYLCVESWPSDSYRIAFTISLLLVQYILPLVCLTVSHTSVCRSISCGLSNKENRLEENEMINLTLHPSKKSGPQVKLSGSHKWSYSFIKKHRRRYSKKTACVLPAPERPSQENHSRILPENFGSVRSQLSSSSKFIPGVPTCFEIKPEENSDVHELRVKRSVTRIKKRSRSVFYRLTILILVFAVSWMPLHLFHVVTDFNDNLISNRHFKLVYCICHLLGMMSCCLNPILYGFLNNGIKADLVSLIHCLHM
The experiment in a line: Functional assay: block of NPY-induced inhibition of cAMP accumulation in forskolin-stimulated LM(tk-) cells (radioimmunoassay of cAMP). Conditions: antagonism of NPY-induced inhibition of cAMP accumulation, forskolin-stimulated LM(tk-) cells with human Y5; at least three experiments. Type of experiment: cell-based.

For another experiment, the target named is T6, human Y1 receptor (Homo sapiens, UniProt P25929).
T6 construct: expressed in transfected cells
T6 sequence (P25929 1-384): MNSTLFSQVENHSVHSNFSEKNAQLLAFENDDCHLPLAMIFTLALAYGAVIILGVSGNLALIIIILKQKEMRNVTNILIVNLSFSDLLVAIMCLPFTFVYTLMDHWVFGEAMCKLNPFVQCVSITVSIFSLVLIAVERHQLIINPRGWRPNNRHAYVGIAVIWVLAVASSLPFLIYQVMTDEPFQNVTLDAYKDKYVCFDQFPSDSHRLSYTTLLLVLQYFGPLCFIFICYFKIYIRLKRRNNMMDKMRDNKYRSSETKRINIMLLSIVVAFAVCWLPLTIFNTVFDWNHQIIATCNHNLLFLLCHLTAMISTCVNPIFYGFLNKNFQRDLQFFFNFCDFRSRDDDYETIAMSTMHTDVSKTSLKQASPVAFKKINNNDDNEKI
The experiment in a line: Radioligand binding to cloned human Y1 receptor (125I-PYY). Conditions: cloned human Y1, stably transfected cells, read-out: Binding Affinity (K1 (nM) vs. 125I-PYY) Human Receptor Y1.

In another experiment the target is T7, human Y5 receptor (Homo sapiens, UniProt Q15761).
T7 construct: expressed in transfected cells
T7 sequence (Q15761 1-445): T5 sequence (Q15761 1-445)
The experiment in a line: Radioligand binding to cloned human Y5 receptor (125I-PYY). The following applies: cloned human Y5, stably transfected cells, read-out: Binding Affinity (K1 (nM) vs. 125I-PYY) Human Receptor Y5.

Structures are written as SMILES. Bounds are passed on as bounds.

T1 sequence (P50391 whole entry): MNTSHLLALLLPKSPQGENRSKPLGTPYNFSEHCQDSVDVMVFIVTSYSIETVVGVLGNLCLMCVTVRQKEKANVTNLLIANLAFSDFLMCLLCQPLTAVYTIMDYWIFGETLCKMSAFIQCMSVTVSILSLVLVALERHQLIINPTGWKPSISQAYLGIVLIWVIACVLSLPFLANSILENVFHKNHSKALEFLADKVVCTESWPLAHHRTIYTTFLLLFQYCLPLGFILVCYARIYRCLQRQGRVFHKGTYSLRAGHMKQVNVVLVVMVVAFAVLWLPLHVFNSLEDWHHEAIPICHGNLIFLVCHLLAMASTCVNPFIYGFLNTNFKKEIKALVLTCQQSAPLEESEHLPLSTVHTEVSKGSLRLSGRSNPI
Method for human Y1 receptor: Membranes were harvested from COS-7 cells 48 hours after transient transfection. […] Large particles and debris were cleared by low speed centrifugation (200 x g, 5 min, 4° C.). […] Membranes were held on ice for up to one hour and used fresh, or flash-frozen and stored in liquid nitrogen.
Incubations were terminated by filtration over Whatman GF/C filters (pre-coated with 1% polyethyleneimine and air-dried before use), followed by washing with 5 mL of ice-cold binding buffer.

For `O=S(=O)(NC[C@H]1CC[C@H](CNC(CO)Cc2ccc(Cl)cc2)CC1)c1cccc2ccccc12` (relative stereo) [Example 77, Naphthalene-1-sulfonic Acid trans-(4-{[2-(4-Chloro-phenyl)-1-hydroxymethyl-ethylamino]-methyl}-cyclohexylmethyl)-amide], the Ki on human Y4 receptor is 13100 nM; on human Y2 receptor it was 851 nM; on human 5HT1F receptor it was at least 5.01 µM; on human 5HT1E receptor, at least 5.01 µM. In [1], the “Two-hour food intake, percentage of intake compared to control rats, Mean (%)” value (shortened to “Two-hour food intake, percentage of intake … (%)”) came to 32%.

Take `Cl.O=S(=O)(NCC1CCC(CNCC2CCc3ccccc3C2)CC1)c1ccc2ccccc2c1` (centres unmarked) [Example 31]: the “Two-hour food intake, percentage of intake … (%)” value in experiment [1] came to 27%. For the same molecule, the “NPY-induced cumulative food intake (NPY + compound), mean ± S.E.M.” value in experiment [2] was 3.8 ± 0.4.

Usually Kb stands for the affinity of an antagonist, worked out from how it opposes an agonist. `Cl.O=S(=O)(NCC1CCC(CNCc2cccc3ccccc23)CC1)c1ccccc1C(F)(F)F` (centres unmarked) [Example 37]: at cloned human Y5 receptor, the Kb was found to be 0.038 µM. Besides, the Ki was found to be 14500 nM on human Y1 receptor, 21500 nM on human Y4 receptor, 617 nM at human Y2 receptor and 26 nM at human Y5 receptor. Moreover, the “Two-hour food intake, percentage of intake … (%)” value in experiment [1] is recorded as 58%.

In turn, `Cl.O=S(=O)(NCC1CCC(CNCc2ccc3ccccc3c2)CC1)c1ccccc1C(F)(F)F` (centres unmarked) [Example 38] came in with a Kb at cloned human Y5 receptor of 0.016 µM. In addition, the Ki on human Y1 receptor turned out to be 13000 nM; on human Y4 receptor, 18500 nM; on human Y2 receptor, 1610 nM; at human Y5 receptor, 9.8 nM. Moreover, in [1], the “Two-hour food intake, percentage of intake … (%)” value is 80%.

Consider `Cl.Cl.O=[N+]([O-])c1ccccc1S(=O)(=O)NCC1CCC(CNCc2ccc3ccccc3n2)CC1` (centres unmarked) [Example 44], for which the Ki on human Y1 receptor is 23700 nM; on human Y4 receptor it was 19300 nM; at human Y2 receptor it was 58200 nM. The “Two-hour food intake, percentage of intake … (%)” value in [1] is reported as 73%.

Molecule `Cl.Cl.O=[N+]([O-])c1ccccc1S(=O)(=O)NCC1CCC(CNCc2ccnc3ccccc23)CC1` (centres unmarked) [Example 45] showed a Kb on cloned human Y5 receptor of 0.049 µM. Besides, the Ki on human Y1 receptor amounted to 48700 nM; at human Y4 receptor, 63100 nM; on human Y2 receptor, 5280 nM; on human Y5 receptor, 28 nM. Also, in [1], the “Two-hour food intake, percentage of intake … (%)” value is reported as 84%.
